“And” between values parts separate entries of the source, which are not always exact repeats. Equal values may be shown once. Read-outs that look alike come from different tables or passages of the source.
Assays:
[1] = in vivo; cited from earlier work
[2] = molecular target: T1, sigma-2 receptor (Homo sapiens, UniProt Q5BJF2); experiment: In vitro live cellular binding studies in MDA-MB-231 breast cancer cells; conditions: MDA-MB-231 cells
T1 construct: was evaluated in MDA-MB-231 breast cancer cells (ATCC-HTB-26) known to have high sigma-2 receptor density; host or cells: MDA-MB-231 (living, plated cells)
Experimental: MDA-MB-231 were cultured in Minimum Essential Media (MEM) with added nutrients, 10% fetal bovine serum (FBS) and 1% penicillin/streptomycin at 5% CO2 and 37° C. Twenty-four hours before assay cells were plated at 50,000 cell/well in 96-well format. Two solutions of freshly synthesized radioligand were diluted to a concentration of approximately 2,000 cpm/μL in phosphate buffered saline with calcium and magnesium (PBS w/ Ca^2+ and Mg^2+), with and without non-radioactive 100 μM of the standard to determine non-specific binding. […] Total volume of treatment in each well was 50 μL. PBS w/ Ca^2+ and Mg^2+ without substrate was added to the last row of wells and was used for protein quantification at the end of the experiment. Treatment was removed at time points over the course of 2 h (n=4/time point). At each time of treatment removal, wells were washed with PBS×3. At the end of the experiment wells were counted on an automatic gamma counter using a custom protocol with an energy window of 70-110 KeV (Wizard™ 2470, Perkin Elmer, Waltham Mass.). Protein quantification was performed using a modified Lowry method. Independent experiments were repeated in triplicate. One-phase association kinetics were modeled using Prism™ software version 6.0 (La Holla, Calif.).

[3] = Experimental: Tumors were grown by subcutaneously injecting 1×10^6 EMT-6 mouse breast cancer cells (ATCC #CRL-2755) into the flanks of female BALB/c mice (Taconic). Tumors were an appropriate size of approximately 200 mm^3 after 14 days of growth. On the day of experiment 10 μCi of newly synthesized ^211At—N-(6,7-dimethoxy-3,4-dihydroisoquinolin-2(1H)-yl)butyl)-2,3-dimethoxybenzamide in saline (ethanol<5%) was administered intravenously to mice under isoflurane anesthesia. Mice were sacrificed by cervical dislocation followed by immediate cardiac puncture post administration at time points of 5 min, 1, 2, 4, 8, and 24 h (n=4 mice/time point). Tissue harvested included; blood, heart, muscle, lung, kidney, pancreas, spleen, liver, skin, brain, thyroid, stomach and EMT-6 tumor. Tissues were weighed and counted on an automatic gamma counter as previously described. All animal experiments were conducted under IACUC-approved protocols compliant with University of Pennsylvania guidelines for the care and use of research animals.

T1 sequence (Q5BJF2 whole entry): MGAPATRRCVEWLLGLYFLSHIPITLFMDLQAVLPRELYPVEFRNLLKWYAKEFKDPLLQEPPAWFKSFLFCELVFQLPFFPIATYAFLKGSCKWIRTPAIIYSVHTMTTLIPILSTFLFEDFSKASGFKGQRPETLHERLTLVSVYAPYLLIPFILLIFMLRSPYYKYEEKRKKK

COc1cc2c(cc1OC)CN(CCCCNC(=O)c1cc(I)cc(OC)c1OC)CC2 [iodinated sigma-2 ligand standard, 5-iodo-N-(4-(6,7-dimethoxy-3,4-dihydroisoquinolin-2(1H)-yl)butyl)-2,3-dimethoxybenzamide]
tumor uptake [1]: 2 % ID/g

COc1cc2c(cc1OC)CN(CCCCNC(=O)c1cc([211At])cc(OC)c1OC)CC2 [^211At—N-(6,7-dimethoxy-3,4-dihydroisoquinolin-2(1H)-yl)butyl)-2,3-dimethoxybenzamide]
reduction in total binding through the addition of the standard ([2]; +100 μM non-radioactive standard): 80% | time of 50% maximal binding (T1/2) ([2]; one-phase association): 12.51 min | Decay corrected biodistribution, Blood ([3]; 5 min after i.v.): 4.06 ± 0.19 % ID/g | Decay corrected biodistribution, Blood ([3]; 1 h after i.v.): 2.12 ± 0.15 % ID/g | Decay corrected biodistribution, Blood ([3]; 2 h after i.v.): 2.43 ± 0.82 % ID/g | Decay corrected biodistribution, Blood ([3]; 4 h after i.v.): 1.64 ± 0.11 % ID/g | Decay corrected biodistribution, Blood ([3]; 8 h after i.v.): 1.82 ± 0.10 % ID/g | Decay corrected biodistribution, Blood ([3]; 24 h after i.v.): 0.44 ± 0.10 % ID/g | Decay corrected biodistribution, Brain ([3]; 5 min after i.v.): 1.95 ± 0.14 % ID/g | Decay corrected biodistribution, Brain ([3]; 1 h after i.v.): 0.46 ± 0.08 % ID/g | Decay corrected biodistribution, Brain ([3]; 2 h after i.v.): 0.39 ± 0.01 % ID/g | Decay corrected biodistribution, Brain ([3]; 4 h after i.v.): 0.21 ± 0.02 % ID/g | Decay corrected biodistribution, Brain ([3]; 8 h after i.v.): 0.25 ± 0.02 % ID/g | Decay corrected biodistribution, Brain ([3]; 24 h after i.v.): 0.07 ± 0.02 % ID/g | retention of radioactivity in the tumor, time post administration ([3]; EMT-6 tumor): 1 to 8 h | Decay corrected biodistribution, Tumor ([3]; EMT-6 tumor, 5 min after i.v.): 0.74 ± 0.07 % ID/g | Decay corrected biodistribution, Tumor ([3]; EMT-6 tumor, 1 h after i.v.): 4.40 ± 0.15 % ID/g | Decay corrected biodistribution, Tumor ([3]; EMT-6 tumor, 2 h after i.v.): 4.93 ± 0.78 % ID/g | Decay corrected biodistribution, Tumor ([3]; EMT-6 tumor, 4 h after i.v.): 5.05 ± 0.68 % ID/g | Decay corrected biodistribution, Tumor ([3]; EMT-6 tumor, 8 h after i.v.): 5.11 ± 0.09 % ID/g | Decay corrected biodistribution, Tumor ([3]; EMT-6 tumor, 24 h after i.v.): 1.34 ± 0.37 % ID/g | Tumor accumulation ([3]; EMT-6 tumor, from 1 h to at least 8 h): above 4 % ID/g | Decay corrected biodistribution, Heart ([3]; 5 min after i.v.): 10.2 ± 0.82 % ID/g | Decay corrected biodistribution, Heart ([3]; 1 h after i.v.): 5.16 ± 1.21 % ID/g | Decay corrected biodistribution, Heart ([3]; 2 h after i.v.): 4.70 ± 0.31 % ID/g | Decay corrected biodistribution, Heart ([3]; 4 h after i.v.): 3.54 ± 0.17 % ID/g | Decay corrected biodistribution, Heart ([3]; 8 h after i.v.): 4.01 ± 0.29 % ID/g | Decay corrected biodistribution, Heart ([3]; 24 h after i.v.): 1.14 ± 0.27 % ID/g | Decay corrected biodistribution, Kidney ([3]; 5 min after i.v.): 47.7 % ID/g and 47.7 ± 2.32 % ID/g | Decay corrected biodistribution, Kidney ([3]; 1 h after i.v.): 5.83 % ID/g and 5.83 ± 0.53 % ID/g | Decay corrected biodistribution, Kidney ([3]; 2 h after i.v.): 5.59 ± 0.35 % ID/g | Decay corrected biodistribution, Kidney ([3]; 4 h after i.v.): 2.97 ± 0.13 % ID/g | Decay corrected biodistribution, Kidney ([3]; 8 h after i.v.): 3.24 ± 0.21 % ID/g | Decay corrected biodistribution, Kidney ([3]; 24 h after i.v.): 1.05 ± 0.23 % ID/g | Decay corrected biodistribution, Liver ([3]; 5 min after i.v.): 18.1 ± 2.11 % ID/g | Decay corrected biodistribution, Liver ([3]; 1 h after i.v.): 6.39 ± 3.27 % ID/g | Decay corrected biodistribution, Liver ([3]; 2 h after i.v.): 4.63 ± 1.01 % ID/g | Decay corrected biodistribution, Liver ([3]; 4 h after i.v.): 1.87 ± 0.17 % ID/g | Decay corrected biodistribution, Liver ([3]; 8 h after i.v.): 1.86 ± 0.19 % ID/g | Decay corrected biodistribution, Liver ([3]; 24 h after i.v.): 0.59 ± 0.20 % ID/g | Decay corrected biodistribution, Lung ([3]; 5 min after i.v.): 20.2 ± 1.39 % ID/g | Decay corrected biodistribution, Lung ([3]; 1 h after i.v.): 7.14 ± 1.03 % ID/g | Decay corrected biodistribution, Lung ([3]; 2 h after i.v.): 6.42 ± 0.39 % ID/g | Decay corrected biodistribution, Lung ([3]; 4 h after i.v.): 5.74 ± 0.53 % ID/g | Decay corrected biodistribution, Lung ([3]; 8 h after i.v.): 6.23 ± 0.57 % ID/g | Decay corrected biodistribution, Lung ([3]; 24 h after i.v.): 2.21 ± 0.40 % ID/g | Decay corrected biodistribution, Muscle ([3]; 5 min after i.v.): 0.69 ± 0.16 % ID/g | Decay corrected biodistribution, Muscle ([3]; 1 h after i.v.): 1.24 ± 0.18 % ID/g | Decay corrected biodistribution, Muscle ([3]; 2 h after i.v.): 1.15 ± 0.07 % ID/g | Decay corrected biodistribution, Muscle ([3]; 4 h after i.v.): 0.56 ± 0.03 % ID/g | Decay corrected biodistribution, Muscle ([3]; 8 h after i.v.): 0.61 ± 0.04 % ID/g | Decay corrected biodistribution, Muscle ([3]; 24 h after i.v.): 0.19 ± 0.01 % ID/g | Decay corrected biodistribution, Pancreas ([3]; 5 min after i.v.): 8.81 ± 1.21 % ID/g | Decay corrected biodistribution, Pancreas ([3]; 1 h after i.v.): 18.1 ± 1.60 % ID/g | Decay corrected biodistribution, Pancreas ([3]; 2 h after i.v.): 18.0 ± 1.65 % ID/g | Decay corrected biodistribution, Pancreas ([3]; 4 h after i.v.): 26.3 ± 2.11 % ID/g | Decay corrected biodistribution, Pancreas ([3]; 8 h after i.v.): 21.1 ± 2.35 % ID/g | Decay corrected biodistribution, Pancreas ([3]; 24 h after i.v.): 5.78 ± 0.89 % ID/g | Decay corrected biodistribution, Skin ([3]; 5 min after i.v.): 0.58 ± 0.05 % ID/g | Decay corrected biodistribution, Skin ([3]; 1 h after i.v.): 2.30 ± 0.23 % ID/g | Decay corrected biodistribution, Skin ([3]; 2 h after i.v.): 2.66 ± 0.30 % ID/g | Decay corrected biodistribution, Skin ([3]; 4 h after i.v.): 1.79 ± 0.15 % ID/g | Decay corrected biodistribution, Skin ([3]; 8 h after i.v.): 2.10 ± 0.42 % ID/g | Decay corrected biodistribution, Skin ([3]; 24 h after i.v.): 0.85 ± 0.08 % ID/g | Decay corrected biodistribution, Spleen ([3]; 5 min after i.v.): 8.41 ± 2.67 % ID/g | Decay corrected biodistribution, Spleen ([3]; 1 h after i.v.): 13.2 ± 2.76 % ID/g | Decay corrected biodistribution, Spleen ([3]; 2 h after i.v.): 12.0 ± 1.47 % ID/g | Decay corrected biodistribution, Spleen ([3]; 4 h after i.v.): 7.59 ± 0.49 % ID/g | Decay corrected biodistribution, Spleen ([3]; 8 h after i.v.): 7.49 ± 1.38 % ID/g | Decay corrected biodistribution, Spleen ([3]; 24 h after i.v.): 2.14 ± 1.02 % ID/g | Decay corrected biodistribution, Stomach ([3]; 5 min after i.v.): 5.87 ± 1.12 % ID/g | Decay corrected biodistribution, Stomach ([3]; 1 h after i.v.): 15.9 ± 2.53 % ID/g | Decay corrected biodistribution, Stomach ([3]; 2 h after i.v.): 16.3 ± 2.29 % ID/g | Decay corrected biodistribution, Stomach ([3]; 4 h after i.v.): 19.7 ± 1.79 % ID/g | Decay corrected biodistribution, Stomach ([3]; 8 h after i.v.): 28.2 ± 7.21 % ID/g | Decay corrected biodistribution, Stomach ([3]; 24 h after i.v.): 9.88 ± 1.62 % ID/g | Decay corrected biodistribution, Thyroid ([3]; 5 min after i.v.): 5.87 ± 0.85 % ID/g | Decay corrected biodistribution, Thyroid ([3]; 1 h after i.v.): 11.6 ± 1.01 % ID/g | Decay corrected biodistribution, Thyroid ([3]; 2 h after i.v.): 18.3 ± 6.12 % ID/g | Decay corrected biodistribution, Thyroid ([3]; 4 h after i.v.): 14.0 ± 4.26 % ID/g | Decay corrected biodistribution, Thyroid ([3]; 8 h after i.v.): 13.3 ± 2.96 % ID/g | Decay corrected biodistribution, Thyroid ([3]; 24 h after i.v.): 4.87 ± 1.15 % ID/g | maximal tumor to muscle ratio ([3]; at 4 h): 9.02
